This note sets out measurements from patent US9464082B2, “Aryl and arylalkyl substituted pyrazolyl and pyrimidinyl tricyclic enones as antioxidant inflammation modulators” (AbbVie Inc., priority 2014, dated 2016).

The test system of this assay is IFNγ-Induced NO Production. Nature of the assay: Nitric Oxide Suppression Assay (Suppression of IFNγ-Induced NO Production). Format: cell-based. The following applies: RAW264.7; RAW 264.7 mouse macrophage cells; 2 hour pre-treatment with compound (3 μM to 0.3 nM, 10 point curve); 20 ng/mL interferon gamma, ~18 hour; Griess detection; n=2-3 in duplicates. In outline:
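Mouse RAW 264.7 macrophages pre-treated 2 h at 37 °C with compound (3 μM to 0.3 nM, 10 points; DMSO ≤1%), then stimulated with 20 ng/mL interferon gamma for ~18 h. Supernatant nitrite measured by Griess reaction, absorbance 520–550 nm. IC50 from curve fit of signal normalised to IFNγ alone, mean n=2-3 in duplicate.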
As to `C[C@@H]1C(=O)C(C#N)=C[C@]2(c3ccccc3)c3nn(C)c(-c4cccc(-c5ccc(N(S(C)(=O)=O)S(C)(=O)=O)cc5)c4)c3CC[C@@H]12` [Example 152, N-{3′-[(5aS,6S,9aR)-8-cyano-2,6-dimethyl-7-oxo-9a-phenyl-4,5,5a,6,7,9a-hexahydro-2H-benzo[g]indazol-3-yl]biphenyl-4-yl}-N-(methylsulfonyl)methanesulfonamide], the concentration for half-maximal inhibition (IC50) was 11.5 nM.
As for `COc1ncc(-c2cccc(-c3c4c(nn3C)[C@@]3(c5ccccc5)C=C(C#N)C(=O)[C@@H](C)[C@@H]3CC4)c2)cn1` [Example 153, (5aS,6S,9aR)-3-[3-(2-methoxypyrimidin-5-yl)phenyl]-2,6-dimethyl-7-oxo-9a-phenyl-4,5,5a,6,7,9a-hexahydro-2H-benzo[g]indazole-8-carbonitrile], the figure is 6.46 nM.
The same measure for `COC(=O)CCc1cccc(-c2nc(C)nc3c2CC[C@H]2[C@H](C)C(=O)C(C#N)=C[C@]32c2ccccc2)c1` [Example 154, methyl 3-{3-[(6aS,7S,10aR)-9-cyano-2,7-dimethyl-8-oxo-10a-phenyl-5,6,6a,7,8,10a-hexahydrobenzo[h]quinazolin-4-yl]phenyl}propanoate]: 47.5 nM; for `Cc1nc(-c2cccc(CCC(=O)O)c2)c2c(n1)[C@@]1(c3ccccc3)C=C(C#N)C(=O)[C@@H](C)[C@@H]1CC2` [Example 155, 3-{3-[(6aS,7S,10aR)-9-cyano-2,7-dimethyl-8-oxo-10a-phenyl-5,6,6a,7,8,10a-hexahydrobenzo[h]quinazolin-4-yl]phenyl}propanoic acid]: 107 nM; for `Cc1nc(-c2cccc(CCC(N)=O)c2)c2c(n1)[C@@]1(c3ccccc3)C=C(C#N)C(=O)[C@@H](C)[C@@H]1CC2` [Example 156, 3-{3-[(6aS,7S,10aR)-9-cyano-2,7-dimethyl-8-oxo-10a-phenyl-5,6,6a,7,8,10a-hexahydrobenzo[h]quinazolin-4-yl]phenyl}propanamide]: 3.57 nM.
The same measure for `C[C@@H]1C(=O)C(C#N)=C[C@]2(c3ccccc3)c3n[nH]c(-c4cnn(-c5ccc(C#N)cc5)c4)c3CC[C@@H]12` [Example 157, (5aS,6S,9aR)-3-[1-(4-cyanophenyl)-1H-pyrazol-4-yl]-6-methyl-7-oxo-9a-phenyl-4,5,5a,6,7,9a-hexahydro-2H-benzo[g]indazole-8-carbonitrile]: 44.4 nM; for `C[C@@H]1C(=O)C(C#N)=C[C@]2(c3ccccc3)c3n[nH]c(-c4cnn(-c5cccnc5)c4)c3CC[C@@H]12` [Example 158, (5aS,6S,9aR)-6-methyl-7-oxo-9a-phenyl-3-[1-(pyridin-3-yl)-1H-pyrazol-4-yl]-4,5,5a,6,7,9a-hexahydro-2H-benzo[g]indazole-8-carbonitrile]: 33 nM.
As for `C[C@@H]1C(=O)C(C#N)=C[C@]2(c3ccccc3)c3n[nH]c(-c4cnn(-c5ccncc5)c4)c3CC[C@@H]12` [Example 159, (5aS,6S,9aR)-6-methyl-7-oxo-9a-phenyl-3-[1-(pyridin-4-yl)-1H-pyrazol-4-yl]-4,5,5a,6,7,9a-hexahydro-2H-benzo[g]indazole-8-carbonitrile], the concentration for half-maximal inhibition (IC50) was 33.8 nM.
As for `C[C@@H]1C(=O)C(C#N)=C[C@]2(c3ccccc3)c3nn(C)c(-c4cccc(-c5cccc(C(=O)O)c5)c4)c3CC[C@@H]12` [Example 166, 3′-[(5aS,6S,9aR)-8-cyano-2,6-dimethyl-7-oxo-9a-phenyl-4,5,5a,6,7,9a-hexahydro-2H-benzo[g]indazol-3-yl]biphenyl-3-carboxylic acid], the figure is 65.6 nM; as for `C[C@@H]1C(=O)C(C#N)=C[C@]2(c3ccccc3)c3nn(C)c(-c4cccc(-c5cn[nH]c5)c4)c3CC[C@@H]12` [Example 167, (5aS,6S,9aR)-2,6-dimethyl-7-oxo-9a-phenyl-3-[3-(1H-pyrazol-4-yl)phenyl]-4,5,5a,6,7,9a-hexahydro-2H-benzo[g]indazole-8-carbonitrile], 3.27 nM; as for `C[C@@H]1C(=O)C(C#N)=C[C@]2(c3ccccc3)c3nn(C)c(-c4cccc(-c5ccc(CNS(C)(=O)=O)cc5)c4)c3CC[C@@H]12` [Example 168, N-({3′-[(5aS,6S,9aR)-8-cyano-2,6-dimethyl-7-oxo-9a-phenyl-4,5,5a,6,7,9a-hexahydro-2H-benzo[g]indazol-3-yl]biphenyl-4-yl}methyl)methanesulfonamide], 12.3 nM.
`C[C@@H]1C(=O)C(C#N)=C[C@]2(c3ccccc3)c3nn(C)c(-c4cccc(-c5ccc(NS(C)(=O)=O)cc5)c4)c3CC[C@@H]12` [Example 169, N-{3′-[(5aS,6S,9aR)-8-cyano-2,6-dimethyl-7-oxo-9a-phenyl-4,5,5a,6,7,9a-hexahydro-2H-benzo[g]indazol-3-yl]biphenyl-4-yl}methanesulfonamide]: the IC50 is 8.77 nM.
The same measure for `C[C@@H]1C(=O)C(C#N)=C[C@]2(c3ccccc3)c3nn(C)c(-c4cccc(-c5ccc(O)cc5)c4)c3CC[C@@H]12` [Example 170, (5aS,6S,9aR)-3-(4′-hydroxybiphenyl-3-yl)-2,6-dimethyl-7-oxo-9a-phenyl-4,5,5a,6,7,9a-hexahydro-2H-benzo[g]indazole-8-carbonitrile]: 6.96 nM; for `C[C@@H]1C(=O)C(C#N)=C[C@]2(c3ccccc3)c3nn(C)c(-c4cccc(-c5ccc(C(N)=O)cc5)c4)c3CC[C@@H]12` [Example 171, 3′-[(5aS,6S,9aR)-8-cyano-2,6-dimethyl-7-oxo-9a-phenyl-4,5,5a,6,7,9a-hexahydro-2H-benzo[g]indazol-3-yl]biphenyl-4-carboxamide]: 13.9 nM; for `Cc1nc(-c2ccnnc2)c2c(n1)[C@@]1(c3ccccc3)C=C(C#N)C(=O)[C@@H](C)[C@@H]1CC2` [Example 172, (6aS,7S,10aR)-2,7-dimethyl-8-oxo-10a-phenyl-4-(pyridazin-4-yl)-5,6,6a,7,8,10a-hexahydrobenzo[h]quinazoline-9-carbonitrile]: 49.4 nM.
The same measure for `Cc1noc(-c2ccc(-c3ncc4c(n3)[C@@]3(c5ccccc5)C=C(C#N)C(=O)[C@@H](C)[C@@H]3CC4)cc2)n1` [Example 173, (6aS,7S,10aR)-7-methyl-2-[4-(3-methyl-1,2,4-oxadiazol-5-yl)phenyl]-8-oxo-10a-phenyl-5,6,6a,7,8,10a-hexahydrobenzo[h]quinazoline-9-carbonitrile]: 19.7 nM; for `COc1ccc([C@]23C=C(C#N)C(=O)[C@@H](C)[C@@H]2CCc2c(-c4cncn4C)nc(C)nc23)cc1` [Example 174, (6aS,7S,10aR)-10a-(4-methoxyphenyl)-2,7-dimethyl-4-(1-methyl-1H-imidazol-5-yl)-8-oxo-5,6,6a,7,8,10a-hexahydrobenzo[h]quinazoline-9-carbonitrile]: 1.9 nM; for `COC(=O)c1ccc([C@]23C=C(C#N)C(=O)[C@@H](C)[C@@H]2CCc2c(-c4cncn4C)nc(C)nc23)cc1` [Example 175, methyl 4-[(6aS,7S,10aR)-9-cyano-2,7-dimethyl-4-(1-methyl-1H-imidazol-5-yl)-8-oxo-6,6a,7,8-tetrahydrobenzo[h]quinazolin-10a(5H)-yl]benzoate]: 2 nM.
As for `COC(=O)c1ccc([C@]23C=C(C#N)C(=O)[C@@H](C)[C@@H]2CCc2c(-c4c(Br)ncn4C)nc(C)nc23)cc1` [Example 176, methyl 4-[(6aS,7S,10aR)-4-(4-bromo-1-methyl-1H-imidazol-5-yl)-9-cyano-2,7-dimethyl-8-oxo-6,6a,7,8-tetrahydrobenzo[h]quinazolin-10a(5H)-yl]benzoate], the figure is 12.8 nM.
With `C[C@@H]1C(=O)C(C#N)=C[C@]2(c3ccccc3)c3nn(C)c(-c4cncnc4)c3CC[C@@H]12` [Example 177, (5aS,6S,9aR)-2,6-dimethyl-7-oxo-9a-phenyl-3-(pyrimidin-5-yl)-4,5,5a,6,7,9a-hexahydro-2H-benzo[g]indazole-8-carbonitrile], the IC50 is 10.8 nM.
The same measure for `C[C@@H]1C(=O)C(C#N)=C[C@]2(c3ccccc3)c3nn(C)c(-c4cccnc4)c3CC[C@@H]12` [Example 178, (5aS,6S,9aR)-2,6-dimethyl-7-oxo-9a-phenyl-3-(pyridin-3-yl)-4,5,5a,6,7,9a-hexahydro-2H-benzo[g]indazole-8-carbonitrile]: 5.4 nM; for `C[C@@H]1C(=O)C(C#N)=C[C@]2(c3ccccc3)c3c(c(-c4cncnc4)nn3C)CC[C@@H]12` [Example 179, (5aS,6S,9aR)-1,6-dimethyl-7-oxo-9a-phenyl-3-(pyrimidin-5-yl)-4,5,5a,6,7,9a-hexahydro-1H-benzo[g]indazole-8-carbonitrile]: 1.24 nM.
